Results reported in patent US20120010164A1, “ANTIVIRAL AGENTS” (priority 2009, published 2012).

Key:
[1] = tested on: subgenomic HCV Replicon in hepatoma (HuH-7) cells; test: Assay for inhibition of HCV RNA replication (replicon, in situ ribonuclease protection SPA); type: cell-based; conditions: Hepatitis C virus, HuH-7 replicon cells, activity ranges
Description: The compounds of the present invention were also evaluated for their ability to affect the replication of Hepatitis C Virus RNA in cultured hepatoma (HuH-7) cells containing a subgenomic HCV Replicon. The details of the assay are described below. This Replicon assay is a modification of that described in V. Lohmann, F. Korner, J-O. Koch, U. Herian, L. Theilmann, and R. Bartenschlager, “Replication of a Sub-genomic Hepatitis C Virus RNAs in a Hepatoma Cell Line,” Science 285:110 (1999).
The assay was an in situ Ribonuclease protection, Scintillation Proximity based-plate assay (SPA). 10,000-40,000 cells were plated in 100-200 μL of media containing 0.8 mg/mL G418 in 96-well cytostar plates (Amersham). Compounds were added to cells at various concentrations up to 100 μM in 1% DMSO at time 0 to 18 h and then cultured for 24-96 h. Cells were fixed (20 min, 10% formalin), permeabilized (20 min, 0.25% Triton X-100/PBS) and hybridized (overnight, 50° C.) with a single-stranded ^33P RNA probe complementary to the (+) strand NS5B (or other genes) contained in the RNA viral genome. Cells were washed, treated with RNAse, washed, heated to 65° C. and counted in a Top-Count Inhibition of replication was read as a decrease in counts per minute (cpm).
Human HuH-7 hepatoma cells, which were selected to contain a subgenomic replicon, carry a cytoplasmic RNA consisting of an HCV 5′ non-translated region (NTR), a neomycin selectable marker, an EMCV IRES (internal ribosome entry site), and HCV non-structural proteins NS3 through NS5B, followed by the 3′ NTR.

[2] = Cellular toxicity counterscreen (CC50); type: cell-based; conditions: human, HuH-7 hepatoma cells
Description: The compounds of the present invention were also evaluated for cellular toxicity and anti-viral specificity in the counterscreens described below.

Compound	EC50 [1]	CC50 [2]
[N-]=[N+]=N[C@]1(CO)O[C@@H](n2cc(F)c3c(N)ncnc32)[C@@H](F)[C@@H]1O [Example 2, 7-(4-azido-2-deoxy-2-fluoro-β-D-arabinofuranosyl)-5-fluoro-7H-pyrrolo[2,3-d]pyrimidin-4-amine]	20 to 100 µM	> 100 µM
[N-]=[N+]=N[C@]1(CO)OC(n2cnc3c(N)ncnc32)[C@@H](F)[C@@H]1O (stereo partly drawn) [Example 3, 9-(4-azido-2-deoxy-2-fluoro-b-D-arabinofuranosyl)-9H-purin-6-amine]	> 100 µM	> 100 µM
[N-]=[N+]=N[C@]1(CO)O[C@@H](n2ccc3c(N)ncnc32)[C@@H](F)[C@@H]1O [Example 1, 7-(4-azido-2-deoxy-2-fluoro-β-D-arabinofuranosyl)-7H-pyrrolo[2,3-d]pyrimidin-4-amine]	< 20 µM	> 100 µM
